Reference: US12604893B2, “Compositions and methods for modulating microbiomes” (BOYCE THOMPSON INSTITUTE FOR PLANT RESEARCH, INC., priority 2019, dated 2026)

What was measured:
P. fluorescens = assay: Bacterial growth assay, media supplemented with ascarosides; assay type: cell-based
Text: (§1) To test whether bacteria respond to ascarosides, a simple growth assay was utilized. […] Enhanced growth and rhizosphere colonization of P. fluorescens has been observed in the presence of nematodes (Knox, et al. (2004) Appl. Environ. Microbiol., 70:4666-4671) and this may be due to ascr #18 excretion. Next, a wider selection of bacterial species from soil and human environments, including P. tabacum, P. fluorescens, S. marcescens, E. faecalis, and B. subtilis, was studied. […] In contrast to ascr #18, the effects of other ascarosides such as ascr #9, ascr #10, and ascr #3 were species-specific.

S. marcescens = assay: as above; assay type: cell-based
Text: as §1

B. subtilis = assay: as above; assay type: cell-based; settings: FIG. 1B
Procedure: (§2) FIG. 1A provides a graph and images of P. syringae growth. Bacterial growth media were supplemented with different concentrations of ascarosides. Ten-fold serially diluted bacterial cells were plated and bacterial growth and quantification was performed 3 days post incubation. FIG. 1B provides images of B. subtilis growth. Bacterial growth media were supplemented with different concentrations of ascarosides. Ten-fold serially diluted bacterial cells were plated and bacterial growth and quantification was performed 18 hours post incubation. FIG. 1C provides a graph showing biofilm formation of S. marcescens in the presence of 1 nM of ascr #3, ascr #9, ascr #10, and ascr #18. *P<0.05, **P<0.001, two-tailed t-test. Bacterial growth and biofilm assays have been independently repeated at least three times.
as §1

P. tabacum = assay: as above; assay type: cell-based
Text: as §1

A. tumefaciens = assay: as above; assay type: cell-based; settings: growth media supplemented with 1 and 10 nM
Text: as §1

E. coli [1] = assay: as above; assay type: cell-based; settings: growth media supplemented with 1 and 10 nM
Text: as §1

E. faecalis = assay: as above; assay type: cell-based
Text: as §1

soil microbiome = assay: Soil samples treated with ascr #18, microbial DNA sequencing (16s rRNA, ITS); settings: low nanomolar concentrations, 24 hours; preliminary analyses
Procedure: (§3) To investigate whether ascarosides affect soil microbiomes, soil samples were collected from sites free from pesticide and fertilizer applications to ensure inclusion of a representative diversity of natural microbes (Panke-Buisse, et al. (2015) ISME J., 9:980-9; Lebeis, et al. (2015) Science 349:860-864). The soil samples were treated with low nanomolar concentrations of ascr #18 for 24 hours followed by microbial DNA and metabolome extraction. DNA sequencing was performed by targeting conserved 16s rRNA for bacteria and internal transcribed spacer (ITS) gene for fungi (Panke-Buisse, et al. (2015) ISME J., 9:980-9).

P. syringae [2] = assay: Microbial metabolism of ascr #18; assay type: in vitro ADME
Procedure: (§4) To identify which specific microbes from the soil are responsible for ascr #18 metabolism, the effect of ascr #18 on individual microbes was tested. Bacteria and fungi in the soil interact with nematodes in diverse ways (Lakshmanan, et al. (2014) Plant Physiol., 166:689-700; Knox, et al. (2004) Appl. Environ. Microbiol., 70:4666-4671; Siddiqui, et al. (1999) Bioresour. Technol., 69:167-179). Microbial metabolism of ascr #18 was assessed in three bacteria, E. coli, Agrobacterium tumefaciens, and P. syringae and two fungi, Aspergillus fumigatus and A. flavus, all of which are commonly found in soil. […] Whereas, like fungi, all tested plants and animals are capable of metabolizing ascr #18, it appears that bacteria (and perhaps other prokaryotes) lack this ability.

A. flavus = assay: Microbial metabolism of ascr #18; assay type: in vitro ADME
Procedure: as §4

Aspergillus fumigatus = assay: Microbial metabolism of ascr #18; assay type: in vitro ADME
Procedure: as §4

E. coli [3] = assay: Microbial metabolism of ascr #18; assay type: in vitro ADME
Procedure: as §4

[4] = test system: Agrobacterium tumefaciens; assay: Microbial metabolism of ascr #18; assay type: in vitro ADME
Procedure: as §4

P. syringae [5] = assay: Bacterial growth assay, media supplemented with ascarosides; assay type: cell-based; settings: growth media supplemented with 1 and 10 nM; FIG. 1A
Procedure: as §2, §1

soil samples = assay: Comparative metabolomics of soil samples treated with ascr #18; assay type: in vitro ADME
Procedure: as §3, §4

In the case of CC1O[C@@H](O[C@H](C)CCCC/C=C/C(=O)O)C(O)C[C@H]1O (stereo partly drawn) [ascr #3], the “bacterial growth of P. fluorescens” value (P. fluorescens) is reported as “suppressed”, the “bacterial growth of S. marcescens” value (S. marcescens) is reported as “promoted growth” and the “bacterial growth of B. subtilis” value (B. subtilis) is reported as “suppressed”.
CC1O[C@@H](O[C@H](C)CCCCCCC(=O)O)C(O)C[C@H]1O (stereo partly drawn) [ascr #10] was tested, and the “bacterial growth of P. fluorescens” value (P. fluorescens) was “suppressed”, the “bacterial growth of S. marcescens” value (S. marcescens) was “promoted growth” and the “bacterial growth of B. subtilis” value (B. subtilis) was “suppressed”.
CC1O[C@@H](O[C@@H](C)CCCCCCCCC(=O)O)C(O)C[C@H]1O (stereo in doubt) [ascr #18, (10R)-(3′R,5′R-dihydroxy-6'S-methyl-(2H)-tetrahydropyran-2-yloxy)-undecanoic acid] was tested, and the “bacterial growth of P. tabacum” value (P. tabacum) was “generally promoted growth”, the “bacterial growth of A. tumefaciens” value (A. tumefaciens) was “not affected” and the “bacterial growth of P. fluorescens” value (P. fluorescens) was “generally promoted growth”. For the same molecule, the “bacterial growth of S. marcescens” value (S. marcescens) was “generally promoted growth”, the “bacterial growth of E. coli” value (E. coli [1]) was “not affected” and the “bacterial growth of E. faecalis” value (E. faecalis) was “generally promoted growth”. For the same molecule, the “effect on microbial composition of the soil” value (soil microbiome) was “shifts microbial composition of the soil”, the “metabolism of ascr #18 by P. syringae” value (P. syringae [2]) was “none of the bacteria were able to metabolize” and the “metabolism of ascr #18 by A. flavus” value (A. flavus) was “metabolized into shorter-chained ascarosides”. For the same molecule, the “metabolism of ascr #18 by Aspergillus fumigatus” value (Aspergillus fumigatus) was “metabolized into shorter-chained ascarosides”, the “metabolism of ascr #18 by E. coli” value (E. coli [3]) was “none of the bacteria were able to metabolize” and the “metabolism of ascr #18 by Agrobacterium tumefaciens” value [4] was “none of the bacteria were able to metabolize”. For the same molecule, the “bacterial growth of P. syringae” value (P. syringae [5]) was “significant growth increase”, the “bacterial growth of B. subtilis” value (B. subtilis) was “generally promoted growth” and the “metabolism of ascr #18 in soil samples” value (soil samples) was “extensively edited into shorter side-chained ascarosides”.
With C[C@H](CCC(=O)O)O[C@@H]1O[C@@H](C)[C@H](O)C[C@H]1O [ascr #9] the “bacterial growth of P. fluorescens” value (P. fluorescens) was “suppressed”, the “bacterial growth of S. marcescens” value (S. marcescens) was “promoted growth” and the “bacterial growth of B. subtilis” value (B. subtilis) was “suppressed”.
